Assay results reported in ChEMBL document CHEMBL4350974, “Synthesis and biological evaluation of methylpyrimidine-fused tricyclic diterpene analogs as novel oral anti-late-onset hypogonadism agents” (Eur J Med Chem, 2019).
The source made the active and inactive calls. The rule behind the calls is not given here.

Experiments:
Rattus norvegicus [1] = experiment: Anti late-onset hypogonadism activity in cyclophosphamide-induced Sprague-Dawley rat model of partial androgen deficiency assessed as intratesticular testosterone level at 100 mg/kg, po qd administered for 4 weeks by ELISA (reference value: 137.99 +/- 19.27 nmol/L); type: functional
Rattus norvegicus [2] = experiment: Anti late-onset hypogonadism activity in cyclophosphamide-induced Sprague-Dawley rat model of partial androgen deficiency assessed as increase in free testosterone level at 50 to 100 mg/kg, po qd administered for 4 weeks and measured every 2 weeks by ELISA; type: functional, organism-based
[3] = Cytotoxicity against mouse TM3 cells assessed as reduction in cell viability measured after 24 hrs by sulforhodamine B assay; type: cell-based
[4] = Toxicity in cyclophosphamide - induced Sprague-Dawley rat model of partial androgen deficiency assessed as sperm viability at 50 mg/kg by semen analysis (reference value: 95.1 +/- 3.2 %); type: organism-based; conditions: in vivo
TM3 [5] = experiment: Induction of autophagy in mouse TM3 cells assessed as phosphorylation of AMPK at 10 to 100 uM by Western blot analysis; type: functional, cell-based
TM3 [6] = experiment: Induction of testosterone production in mouse TM3 cells assessed as increase in 3beta-HSD mRNA expression level after 24 hrs by qRT-PCR analysis; type: functional, cell-based
[7] = Toxicity in cyclophosphamide - induced Sprague-Dawley rat model of partial androgen deficiency assessed as effect on kidney at 50 to 100 mg/kg by HE staining based histopathological analysis; type: organism-based; conditions: in vivo
TM3 [8] = experiment: Induction of autophagy in mouse TM3 cells assessed as increase in LC3-II protein level at 10 to 100 uM by Western blot analysis; type: functional, cell-based
Rattus norvegicus [9] = experiment: Anti late-onset hypogonadism activity in cyclophosphamide-induced Sprague-Dawley rat model of partial androgen deficiency assessed as weight of seminal vesicles at 50 mg/kg, po qd administered for 4 weeks (reference value: 1.33 +/- 0.26 g); type: functional
[10] = Half-life in Sprague-Dawley rat plasma at 5 mg/kg, iv up to 5 hrs by LC/MS analysis; type: ADME, organism-based
[11] = Mean residence time in Sprague-Dawley rat at 50 mg/kg, po by LC/MS analysis; type: ADME, organism-based; conditions: in vivo
[12] = AUC (0 to t) in Sprague-Dawley rat plasma at 5 mg/kg, iv up to 5 hrs by LC/MS analysis; type: ADME, organism-based; parameters: time < 5 hr, dose 5 mg/kg, route intravenous
[13] = AUC (0 to infinity) in Sprague-Dawley rat plasma at 5 mg/kg, iv by LC/MS analysis; type: ADME, organism-based; parameters: dose 5 mg/kg, route intravenous, time infinity
TM3 [14] = experiment: Induction of autophagy in mouse TM3 cells assessed as increase in LC3 protein level at 10 to 100 uM after 24 hrs by DAPI staining based confocal microscopic method; type: functional, cell-based
[15] = Toxicity in cyclophosphamide - induced Sprague-Dawley rat model of partial androgen deficiency assessed as swelling of seminiferous tubules at 50 to 100 mg/kg by HE staining based histopathological analysis; type: organism-based; conditions: in vivo
Rattus norvegicus [16] = experiment: Anti late-onset hypogonadism activity in cyclophosphamide-induced Sprague-Dawley rat model of partial androgen deficiency assessed as weight of testis at 100 mg/kg, po qd administered for 4 weeks (reference value: 1.47 +/- 0.13 g); type: functional
TM3 [17] = experiment: Induction of testosterone production in mouse TM3 cells assessed as increase in testosterone level at 20 uM measured after 24 hrs by ELISA relative to control; type: functional
[18] = Toxicity in cyclophosphamide - induced Sprague-Dawley rat model of partial androgen deficiency assessed as effect on Sertoli cells arrangement at 50 to 100 mg/kg by HE staining based histopathological analysis; type: organism-based; conditions: in vivo
Rattus norvegicus [19] = experiment: Anti late-onset hypogonadism activity in cyclophosphamide-induced Sprague-Dawley rat model of partial androgen deficiency assessed as intratesticular testosterone level at 50 mg/kg, po qd administered for 4 weeks by ELISA (reference value: 137.99 +/- 19.27 nmol/L); type: functional
[20] = Oral bioavailability in Sprague-Dawley rat at 50 mg/kg by LC/MS analysis; type: ADME, organism-based; conditions: in vivo

half-life [10]: 7.59 h
MRT [11]: 7.76 h
AUC(0-t) at 5 h [12]: 453 ng·h/mL
AUC(0-inf) [13]: 551 ng·h/mL
bioavailability [20]: 57%
SMILES: CNC(=O)c1cc2c(cc1OC)[C@@]1(C)Cc3cnc(C)nc3C(C)(C)C1CC2 (mixture of isomers)
Activity (Rattus norvegicus [1]): 185.58 nmol/L
Activity (Rattus norvegicus [2]): Active
CC50 at 24 h [3]: > 200 µM
Activity [4]: 96.5%
Activity (TM3 [5]): Active
Activity (TM3 [6]): Dose-dependent effect
Activity [7]: Non-Toxic
Activity (TM3 [8]): Active
Activity (Rattus norvegicus [9]): 1.53 g
Activity (TM3 [14]): Active
Activity [15]: Toxic
Activity (Rattus norvegicus [16]): 1.66 g
Activity (TM3 [17]): 174.6%
Activity [18]: Toxic
Activity (Rattus norvegicus [19]): 180.24 nmol/L
